The values below come from patent publication US20120272401A1 (priority 2009, published 2012).

One data set addresses T1, AtABCG25 protein (Arabidopsis thaliana, UniProt Q84TH5, L179I).
T1 construct: Full-length cDNA of the AtABCG25 (Atlg71960) gene was obtained from the RIKEN BioResource Center; made in house; host or cells: Sf9 insect cells (Spodoptera frugiperda), BaculoGold baculovirus system; membrane vesicles
Format: biochemical. Conditions: for Promotion of ABA uptake by nucleotide (energy dependence): 4 mM of the indicated nucleotide; for Inhibition of ATP-dependent ABA uptake by nucleotide: 4 mM of the indicated nucleotide in addition to ATP. As to the method:
Such activity is measured using the vesicle transport assay method described in the Examples below. […] The candidate of ABA transporter protein is expressed in such cell membrane. The membrane comprises inside-out membrane vesicles in which the inside and the outside are inverted.
A BaculoGold™ baculovirus expression vector system (BD PharMingen) was used to prepare the recombinant baculovirus. Sf9 insect cells (Spodoptera frugiperda) were infected with the virus and cultured in SF900-SFM medium (Invitrogen) at 27° C. for 72 hours in a shaking incubator. Cells were collected by centrifugation at 1,100×g for 10 minutes and then disrupted by nitrogen cavitation in 150 mM NaCl. 3 mM CaCl2, 2 mM MgCl2, 0.1 mM EGTA, and 10 mM Tris-HCl (pH 7.4). Undisrupted cells, nuclear debris, and mitochondria were pelleted by centrifugation at 2,600×g for 10 minutes. The supernatant was centrifuged at 100,000×g for 30 minutes, and the pellet was resuspended in 70 mM KCl, 7.5 mM MgCl2, and 50 mM MOPS-Tris (pH 7.0). Membrane vesicles were stored by freezing in a deep freezer until use. Concentration of the protein was measured using the BCA protein assay kit (Pierce) with bovine serum albumin as a control. To confirm the production of the AtABCG25 proteins in the Sf9 cells by Western blot analysis, an anti-AtABCG25 antibody was obtained by immunizing a rabbit with a synthetic peptide (Operon Biotechnologies). This synthetic peptide consisted of 3 types of 12 to 14 amino acid residues from the Arabidopsis AtABCG25 protein, designed based on positions 69 to 82 ([…]), positions 132 to 143 ([…]), and positions 328 to 340 ([…]). Membrane proteins were solubilized using 4% SDS and subjected to 10% SDS-PAGE. Proteins were transferred to a polyvinylidene difluoride membrane and probed using a rabbit anti-AtABCG25 antibody and horseradish-peroxidase-conjugated donkey anti-rabbit IgG. Specific immunoreactive proteins were detected by exposure to an autoradiography film using a chemiluminescence detection system (ECL-plus, Amersham Biosciences).
An experiment of membrane transport was carried out using the rapid filtration technique (Otsuka, M. et al., 2005, Proc. Natl. Acad. Sci., U.S.A., 102: 17923-17928). […] The transport medium was passed through a 0.45-μm nitrocellulose filter (Millipore), and the filter was washed with 6 ml of ice-cooled stop buffer (70 mM KCl, 7.5 mM MgCl2, 50 mM MOPS-Tris, pH 7.0). The radioactivity retained on the filter was determined using a liquid scintillation counter (Tri-Carb2800TRs; PerkinElmer). Membrane vesicles from Sf9 cells containing only the vector were used as the controls.

The test system of data set [1] is AtABCG25 promoter (pAtABCG25::GUS reporter). Put plainly: GUS staining of pAtABCG25::GUS transgenic plants after ABA treatment. Format: in vivo, Arabidopsis. Conditions: 10 μM ABA. As to the method:
RNA was extracted from Arabidopsis plants for RT-PCR using the RNeasy Plant Mini Kit (Qiagen). RT-PCR was carried out using AtABCG25_RT-PCR—5′ (5′-[…]-3′ (SEQ ID NO: 8)) and AtABCG25_RT-PCR—3′ (5′-[…]-3′ (SEQ ID NO: 9)) primers with the PrimeScript One Step RT-PCR kit (Takara Bio). The Actin2 transcript as a control was amplified using Actin2RT-F (5′-[…]-3′ (SEQ ID NO: 10)) and Actin2RT-R (5″-[…]-3′ (SEQ ID NO: 11)) primers. GUS staining was carried out according to the standard protocol (Sundaresan, V. et al., 1995, Genes Dev9: 1797-1810). The plants stained with GUS were observed under a SZ61 stereoscopic microscope (Olympus), and digital images were obtained using the DS-L1 CCD digital camera (Nikon). Finer images were photographed using a BX60 upright microscope (Olympus) and a VB-7010 CCD camera (Keyence). For transgenic lines to be examined for GUS expression from the AtABCG25 promoter a 2-kb AtABCG25 promoter region was prepared by amplifying the region using AtABCG25pro_Forward (5′-[…]-3′ (SEQ ID NO: 12)) and AtABCG25pro_Reverse (5′-[…]-3′ (SEQ ID NO: 13)) primers with KOD-plus polymerase (Toyobo), cloning the amplified product into the pENTR/D/TOPO vector (Invitrogen), and integrating the resultant into the GUS-fusion vector pBGGUS (Kubo, M. et al., 2005, Genes Dev 19: 1855-1860).

Data set [2] concerns CC1=CC(=O)CC(C)(C)C1(O)/C=C/C(C)=C\C(=O)O. Put plainly: cells, lysate or membranes named. As to conditions: other: membrane vesicles expressing AtABCG25, ATP-dependent uptake measured for 15 seconds at indicated ABA concentrations; 27.0 °C.

Usually Km stands for the substrate concentration at which the rate is half of its maximum.

T1 sequence (Q84TH5 whole entry L179I): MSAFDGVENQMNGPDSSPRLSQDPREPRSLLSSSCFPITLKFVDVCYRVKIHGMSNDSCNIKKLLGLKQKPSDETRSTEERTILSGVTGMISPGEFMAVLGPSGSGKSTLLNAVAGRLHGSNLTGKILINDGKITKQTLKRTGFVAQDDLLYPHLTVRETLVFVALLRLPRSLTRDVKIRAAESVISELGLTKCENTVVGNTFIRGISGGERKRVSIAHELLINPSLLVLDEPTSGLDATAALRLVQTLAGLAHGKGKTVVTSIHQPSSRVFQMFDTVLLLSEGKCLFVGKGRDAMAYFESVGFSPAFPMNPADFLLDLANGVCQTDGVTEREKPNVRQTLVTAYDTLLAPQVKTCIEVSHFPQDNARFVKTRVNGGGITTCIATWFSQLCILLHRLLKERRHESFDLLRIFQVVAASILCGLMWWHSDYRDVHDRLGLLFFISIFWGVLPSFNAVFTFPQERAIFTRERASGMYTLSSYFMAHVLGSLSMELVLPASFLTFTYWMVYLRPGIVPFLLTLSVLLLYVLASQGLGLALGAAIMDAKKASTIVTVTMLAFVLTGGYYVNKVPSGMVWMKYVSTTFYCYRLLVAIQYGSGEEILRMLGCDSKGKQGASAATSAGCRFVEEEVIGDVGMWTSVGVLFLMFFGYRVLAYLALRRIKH

`CC1=CC(=O)CC(C)(C)C1(O)/C=C/C(C)=C\C(=O)O` (racemic) [ABA, abscisic acid]: the “ABA uptake in the presence of ATP, full activity (100%)” value on AtABCG25 protein (at 15 seconds, in the presence of ATP, no competing compound) is listed as 8.3 μmol/mg protein. The “Expression level of the GUS reporter after ABA treatment” value in data set [1] is “increased”. On to `CC1=CC(=O)CC(C)(C)C1(O)/C=C/C(C)=C\C(=O)O` (single isomer, unassigned; (-)) [(−)ABA], for which, at AtABCG25 protein (in the presence of ATP and compound, (+)ABA at a 10-fold concentration), the “Cis-inhibition of ATP-dependent ABA uptake (substrate specificity)” value is listed as “not influenced”. Regarding `Nc1ncnc2c1ncn2[C@@H]1O[C@H](COP(=O)(O)OP(=O)(O)O)[C@@H](O)[C@H]1O` [ADP], at AtABCG25 protein, the “Promotion of ABA uptake by nucleotide (energy dependence)” value (“Promotion of ABA uptake by nucleotide” for short) is listed as “neither ADP nor AMP promoted” and the “Inhibition of ATP-dependent ABA uptake by nucleotide” value was “inhibited”. Consider `Nc1ncnc2c1ncn2[C@@H]1O[C@H](COP(=O)(O)O)[C@@H](O)[C@H]1O` [AMP], for which, at AtABCG25 protein, the “Promotion of ABA uptake by nucleotide” value is given as “neither ADP nor AMP promoted” and the “Inhibition of ATP-dependent ABA uptake by nucleotide” value is “did not exhibit any inhibitory effect”. Regarding `Nc1ncnc2c1ncn2[C@@H]1O[C@H](COP(=O)(O)OP(=O)(O)OP(=O)(O)O)[C@@H](O)[C@H]1O` [ATP, adenosine triphosphate], the “Promotion of ABA uptake by nucleotide” value at AtABCG25 protein is given as “significantly promoted”. On to `[O]=[V]([O-])([O-])[O-]` [Vanadate], for which, on AtABCG25 protein (1 mM vanadate in addition to ATP), the “Inhibition of ATP-dependent ABA uptake by vanadate” value is given as “inhibited”. Consider “AtABCG25 protein (Arabidopsis thaliana; L179I)”, for which, in data set [2], the Km was 0.23 µM and the Vmax is listed as 6.2 μmol/min/mg protein.
